Calls of active or inactive are those of the source. The calls are words filed in the database; no cut-off is given here.
Columns and labels:
[1] = Toxicity in C57BL/6 mouse xenografted with human MIA PaCa-2 cells assessed as body weight loss at 5 mg/kg, ip measured twice a week for 28 days; type: organism-based; settings: in vivo, 672 h, time 28 day
[2] = system: MIA PaCa-2; assay: Cytotoxicity against human MIA PaCa-2 cells assessed as inhibition of cell growth incubated for 3 days in glucose-containing medium by MTT assay; type: functional, cell-based; settings: MIA PaCa-2, 72 h
[3] = system: MIA PaCa-2; assay: Cytotoxicity against human MIA PaCa-2 cells assessed as inhibition of cell growth incubated for 3 days in galactose-containing medium by MTT assay; type: functional, cell-based; settings: MIA PaCa-2, 72 h
[4] = Inhibition of oxidative phosphorylation complex I in human MIA PaCa-2 cells assessed as reduction in NAD+/NADH ratio incubated for 48 hrs by NAD/NADH-Glo assay; type: cell-based; settings: MIA PaCa-2, 48 h
[5] = system: MIA PaCa-2; assay: Inhibition of oxidative phosphorylation in human MIA PaCa-2 cells assessed as reduction in ATP production incubated for 24 hrs in glucose-containing medium by CellTiter-glo luminescence assay; type: functional, cell-based
[6] = system: MIA PaCa-2; assay: Cytotoxicity against human MIA PaCa-2 cells assessed as inhibition of cell growth incubated for 7 days in glucose-containing medium by MTT assay; type: functional, cell-based; settings: MIA PaCa-2, 168 h
[7] = Inhibition of oxidative phosphorylation in human MIA PaCa-2 cells assessed as reduction in ATP production incubated for 24 hrs in galactose-containing medium by CellTiter-glo luminescence assay; type: functional, cell-based; settings: MIA PaCa-2, 24 h
[8] = system: MIA PaCa-2; assay: Antitumor activity against human MIA PaCa-2 cells xenografted in C57BL/6 mouse syngeneic model assessed as tumor growth inhibition at 5 mg/kg, ip measured upto 28 days by digital caliper method; type: functional, organism-based; settings: time day <=28
[9] = Inhibition of mitochondrial complex I (unknown origin) incubated for 20 hrs by Colorimetric assay
[10] = Inhibition of mitochondrial complex I in human pancreatic cancer cells assessed as reduction in oxygen consumption rate measured immediately by seahorse XFe96 analyser based assay; settings: pancreatic cancer cell
[11] = Microsomal stability in mouse liver microsomes assessed as half life at 10 uM measured upto 60 mins by LC-MS/MS analysis; type: ADME, Microsome; settings: for t1/2: microsomes, 1 h, 10 µM
[12] = Microsomal stability in human liver microsomes assessed as half life at 10 uM measured upto 60 mins by LC-MS/MS analysis; type: ADME, Microsome; settings: for half-life at 10 µM: liver microsomes; for t1/2: microsomes, 1 h, 10 µM
[13] = Inhibition of mitochondrial complex I in human HepG2 cells assessed as reduction in oxygen consumption rate incubated for 6 hrs by seahorse XF analyser based assay; type: cell-based
[14] = Cytotoxicity against human UM16 cells assessed as inhibition of cell growth; type: functional, cell-based
[15] = Drug metabolism in mouse liver microsomes assessed as formation of hydroxylated piperidine ring moiety metabolite at 10 uM measured after 7 to 30 mins by LC-MS/MS analysis; type: ADME, Microsome; settings: time 7-30 min
[16] = Drug metabolism in mouse liver microsomes assessed as formation of de-ethylated diethyl-sulfonamide moiety metabolite at 10 uM measured after 7 to 30 mins by LC-MS/MS analysis; type: ADME, Microsome; settings: time 7-30 min
[17] = system: BXPC-3; assay: Cytotoxicity against human BXPC-3 cells assessed as inhibition of cell growth incubated for 7 days in glucose-containing medium by MTT assay; type: functional, cell-based; settings: BXPC-3, 168 h
[18] = Kinetic aqueous solubility of the compound by turbidimetric method; type: physicochemical; settings: buffer
[19] = system: NCI-H460; assay: Cytotoxicity against human NCI-H460 cells assessed as reduction in galactose-dependent cell viability incubated for 3 days by IncuCyte live-cell imaging assay; type: functional, cell-based; settings: NCI-H460, 72 h
[20] = species: Homo sapiens; assay: Inhibition of complex-I-dependent oxygen consumption in mitochondria of human PC-3 cells by luxcel-dye staining based MitoXpress method; type: functional, cell-based

Structure (SMILES) | IC50 [2] | IC50 [3] | IC50 [6] | IC50 [17] | other results
CC(C)c1noc(N2CCN(C(=O)[C@@H]3CCCN(S(=O)(=O)c4ccc(S(=O)(=O)C5CCC5)cc4)C3)CC2)n1 | 0.02 µM | > 10 µM | 0.07 µM |  | Activity [1]: Non-Toxic; IC50 [4]: 0.016 µM; inhibition [5]: inactive; IC50 [7]: 0.0426 µM; Activity [8]: Active
FC(F)(F)c1ccc(/C=C/c2nc(COc3ccc(CCCCn4ccnn4)cc3)co2)cc1 [MUBRITINIB] |  |  |  |  | IC50 [9]: 0.051 µM
CN(C)C(=N)NC(=N)N [METFORMIN] |  |  |  |  | IC50 [10]: 800 µM
CC(C)c1noc(C2CCN(C(=O)[C@@H]3CCCN(S(=O)(=O)c4ccc(S(=O)(=O)C(C)C)cc4)C3)CC2)n1 | 0.02 µM | > 10 µM | 0.05 µM |  | IC50 [4]: 0.0071 µM; inhibition [5]: inactive; t1/2 [11]: 32.58 min; half-life at 10 µM [12]: > 60 min; IC50 [7]: 0.0172 µM
N=C(N)NC(=N)NCCc1ccccc1 [PHENFORMIN] |  |  |  |  | IC50 [13]: 3.8 µM
CCOC(=O)[C@H]1CCCN(S(=O)(=O)c2ccc(S(=O)(=O)N(CC)CC)cc2)C1 |  |  |  |  | IC50 [14]: 9.47 µM
CC(C)c1noc(N2CCN(C(=O)[C@@H]3CCCN(S(=O)(=O)c4ccc(S(=O)(=O)C(C)C)cc4)C3)CC2)n1 |  | > 10 µM | 0.07 µM |  | IC50 [4]: 0.0304 µM; inhibition [5]: inactive; half-life at 10 µM ([11]; liver microsomes): > 60 min; half-life at 10 µM [12]: > 60 min; IC50 [7]: 0.0292 µM
CCN(CC)S(=O)(=O)c1ccc(S(=O)(=O)N2CCC[C@@H](C(=O)N3CCN(c4nc(C(C)C)no4)CC3)C2)cc1 |  | > 10 µM | 0.05 µM |  | Drug metabolism [15]: Metabolite_Detected; IC50 [4]: 0.0082 µM; inhibition [5]: inactive; t1/2 [11]: 7.7 min; t1/2 [12]: 1.7 min; IC50 [7]: 0.0307 µM; Drug metabolism [16]: Metabolite_Detected
CCOC(=O)C1CCCN(S(=O)(=O)c2ccc(S(=O)(=O)N(CC)CC)cc2)C1 (racemic) |  |  |  |  | IC50 [14]: 0.58 µM
CCN(CC)S(=O)(=O)c1ccc(S(=O)(=O)N2CCC[C@@H](C(=O)NC3COC3)C2)cc1 | 0.9 µM | > 10 µM | 2.3 µM | 13.8 µM | IC50 [4]: 1.66 µM; inhibition [5]: inactive; t1/2 [11]: 27.1 min; t1/2 [12]: 18.5 min; IC50 [7]: 0.951 µM
CCC(CC)S(=O)(=O)c1ccc(S(=O)(=O)N2CCC[C@@H](C(=O)N3CCN(c4nc(C(C)C)no4)CC3)C2)cc1 |  |  | 0.05 µM | 0.12 µM | t1/2 [11]: 7.77 min; t1/2 [12]: 2.53 min
CC(C)c1noc(N2CCN(C(=O)[C@@H]3CCCN(S(=O)(=O)c4ccc(S(=O)(=O)NC5CC5)cc4)C3)CC2)n1 | 0.3 µM | > 10 µM | 1 µM | 6.7 µM | 
CCOC(=O)[C@@H]1CCCN(S(=O)(=O)c2ccc(S(=O)(=O)N(CC)CC)cc2)C1 | 0.09 µM | > 10 µM | 0.4 µM | 0.6 µM | solubility [18]: > 200 µM; IC50 [4]: 0.312 µM; inhibition [5]: inactive; t1/2 [11]: 0.7 min; t1/2 [12]: 0.64 min; IC50 [7]: 0.119 µM; IC50 [14]: 0.31 µM
CCOC(=O)[C@@H]1CCCN(S(=N)(=O)c2ccc(S(=O)(=O)N(CC)CC)cc2)C1 (stereo partly specified) | 4.7 µM | > 10 µM | 12.1 µM | 13.3 µM | 
CCCN(CCC)S(=O)(=O)c1ccc(S(=O)(=O)N2CCC[C@@H](C(=O)OCC)C2)cc1 | 0.6 µM | > 10 µM | 2.3 µM | 2.5 µM | 
CCN(CC)S(=O)(=O)c1ccc(S(=O)(=O)N2CCC[C@@H](C(=O)N3CCN(C(=O)OC(C)(C)C)CC3)C2)cc1 | 0.01 µM | > 10 µM | 0.07 µM | 0.2 µM | 
Cc1nc(-c2nc(-c3ccc(OC(F)(F)F)cc3)no2)nn1Cc1cccc(N2CCC(S(C)(=O)=O)CC2)c1 |  |  |  |  | IC50 [19]: 0.0014 µM
CCN(CC)S(=O)(=O)c1ccc(S(=O)(=O)N2CCC[C@@H](C(=O)N3CC4(CCN(C(=O)OC(C)(C)C)C4)C3)C2)cc1 | 1.3 µM | > 10 µM | 0.19 µM | 0.9 µM | 
CCNS(=O)(=O)c1ccc(S(=O)(=O)N2CCC[C@@H](C(=O)N3CCN(c4nc(C(C)C)no4)CC3)C2)cc1 | 0.2 µM | > 10 µM | 3.3 µM | 6.9 µM | 
CCN(CC)C(=O)c1ccc(S(=O)(=O)N2CCC[C@@H](C(=O)N3CCN(c4nc(C(C)C)no4)CC3)C2)cc1 | 0.07 µM | > 10 µM | 0.1 µM | 1.4 µM | t1/2 [11]: 10.47 min; t1/2 [12]: 12.76 min
CCN(CC)S(=O)(=O)c1ccc(S(=O)(=O)N2CCC[C@@H](c3nc(C)no3)C2)cc1 | 0.7 µM | > 10 µM | 4.1 µM | 2.9 µM | 
CCN(CC)C(=O)[C@@H]1CCCN(S(=O)(=O)c2ccc(S(=O)(=O)N(CC)CC)cc2)C1 | 0.7 µM | > 10 µM | 6.4 µM | 10.5 µM | 
CCOC(=O)[C@@H]1CCCN(S(=O)(=O)c2ccc(S(=O)(=O)N3CCOCC3)cc2)C1 | 4.1 µM | > 10 µM | 23.5 µM | 23.4 µM | 
CCOC(=O)[C@@H]1CCCN(S(=O)(=O)c2ccc(S(=O)(=O)N(C)C)cc2)C1 | 0.3 µM | > 10 µM | 0.9 µM | 1 µM | 
CCOC(=O)[C@@H]1CCCN(S(=O)(=O)c2ccc(S(=O)(=O)N(CC)C(C)C)cc2)C1 | 1.2 µM | > 10 µM | 1 µM | 1.6 µM | 
CC(C)NS(=O)(=O)c1ccc(S(=O)(=O)N2CCC[C@@H](C(=O)N3CCN(c4nc(C(C)C)no4)CC3)C2)cc1 | 0.2 µM | > 10 µM | 2.6 µM | 2.6 µM | t1/2 [11]: 29.36 min; t1/2 [12]: 3.36 min
CCOC(=O)[C@@H]1CCCN(C(=O)c2ccc(S(=O)(=O)N(CC)CC)cc2)C1 | > 3 µM | > 10 µM | > 10 µM | > 10 µM | 
CCOC(=O)[C@@H]1CCCN(S(=O)(=O)c2ccc(S(=O)(=O)N(CC)CC)cc2C)C1 | 1.2 µM | > 10 µM | 5.1 µM | 5.6 µM | 
CCN(CC)S(=O)(=O)c1ccc(S(=O)(=O)N2CCC[C@@H](C(=O)NC3CN(C(=O)NC(C)(C)C)C3)C2)cc1 | 1.4 µM | > 10 µM | 3.4 µM | 10.1 µM | 
Cc1cc(-c2nc(-c3ccc(OC(F)(F)F)cc3)no2)nn1Cc1ccnc(N2CCN(C3CC3)CC2)c1 |  |  |  |  | IC50 [20]: 0.01 µM

Source: ChEMBL document CHEMBL5036363, “Discovery and Lead Optimization of Benzene-1,4-disulfonamides as Oxidative Phosphorylation Inhibitors” (J Med Chem, 2022)
